Data: ChEMBL document CHEMBL5113529, “Design, Synthesis, and Biological Evaluation of Dual-Target COX-2/CYP51 Inhibitors for the Treatment of Fungal Infectious Diseases” (J Med Chem, 2022)
Converted amounts (≈) assume the structure as drawn. The source made the active and inactive calls. The calls are words filed in the database; no cut-off is given here.

Legend:
Candida albicans [1] = assay: Antifungal actvity against Candida albicans ATCC SC5314 infected in mouse assessed as reduction in fungal infection at 10 ug per 20 g, ip administered on day 2, 4, 6, 8, 10 and 12 and measured on day 14; type: functional, organism-based; conditions: dose 10.0 µg, time 14.0 day
Cryptococcus neoformans = assay: Antifungal activity against Cryptococcus neoformans ZKCC 2209 assessed as fungal growth inhibition measured after 72 hrs by double dilution method; type: functional
Candida albicans [2] = assay: Antifungal activity against Candida albicans ATCC SC5314 assessed as fungal growth inhibition measured after 72 hrs by double dilution method; type: functional
Candida albicans [3] = assay: Antifungal activity against fluconazole- resistant Candida albicans 17# assessed as fungal growth inhibition measured after 72 hrs by double dilution method; type: functional
Pichia kudriavzevii = assay: Antifungal activity against Candida krusei ATCC 6258 assessed as fungal growth inhibition measured after 72 hrs by double dilution method; type: functional
Candida tropicalis = assay: Antifungal activity against Candida tropicalis ATCC 1369 assessed as fungal growth inhibition measured after 72 hrs by double dilution method; type: functional
Aspergillus fumigatus = assay: Antifungal activity against Aspergillus fumigatus KM8001 assessed as fungal growth inhibition measured after 72 hrs by double dilution method; type: functional
Candida albicans [4] = assay: Antifungal activity against fluconazole -resistant Candida albicans CaR assessed as fungal growth inhibition measured after 72 hrs by double dilution method; type: functional
Candida albicans [5] = assay: Antifungal activity against fluconazole -resistant Candida albicans 632 assessed as fungal growth inhibition measured after 72 hrs by double dilution method; type: functional
Candida albicans [6] = assay: Antifungal activity against fluconazole -resistant Candida albicans 901 assessed as fungal growth inhibition measured after 72 hrs by double dilution method; type: functional
Candida albicans [7] = assay: Antifungal activity against fluconazole -resistant Candida albicans 904 assessed as fungal growth inhibition measured after 72 hrs by double dilution method; type: functional
[8] = biological target: Prostaglandin G/H synthase 1 (Homo sapiens, UniProt P23219); assay: Inhibition of COX-1 (unknown origin) using arachidonic acid as substrate preincubated for 10 mins followed by substrate addition and measured after 2 mins by immunoassay
Chain of Prostaglandin G/H synthase 1 (P23219 whole entry): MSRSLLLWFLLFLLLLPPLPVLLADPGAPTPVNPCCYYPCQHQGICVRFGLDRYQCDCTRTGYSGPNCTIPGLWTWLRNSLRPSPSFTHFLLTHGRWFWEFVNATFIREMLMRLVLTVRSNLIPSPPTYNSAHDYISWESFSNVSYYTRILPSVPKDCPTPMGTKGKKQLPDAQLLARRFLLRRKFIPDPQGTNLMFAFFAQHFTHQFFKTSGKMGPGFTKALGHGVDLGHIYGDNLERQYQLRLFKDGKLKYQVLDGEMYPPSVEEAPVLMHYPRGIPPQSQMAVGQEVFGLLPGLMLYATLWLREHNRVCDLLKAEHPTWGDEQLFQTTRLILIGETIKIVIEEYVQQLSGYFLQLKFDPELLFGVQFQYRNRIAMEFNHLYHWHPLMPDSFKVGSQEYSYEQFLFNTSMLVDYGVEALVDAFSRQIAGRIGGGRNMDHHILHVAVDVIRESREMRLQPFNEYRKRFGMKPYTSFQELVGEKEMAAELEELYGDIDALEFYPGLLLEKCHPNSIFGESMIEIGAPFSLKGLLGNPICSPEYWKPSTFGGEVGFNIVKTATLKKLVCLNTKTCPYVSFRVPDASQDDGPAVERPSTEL

[9] = biological target: T1, Lanosterol 14-alpha demethylase (Candida albicans (strain SC5314 / ATCC MYA-2876) (Yeast), UniProt P10613); assay: Inhibition of CYP51 in Candida albicans SC5314 using Eburicol as substrate preincubated for 20 mins followed by substrate addition and measured after 4 mins by HPLC analysis; type: single protein
T1 sequence (P10613 whole entry): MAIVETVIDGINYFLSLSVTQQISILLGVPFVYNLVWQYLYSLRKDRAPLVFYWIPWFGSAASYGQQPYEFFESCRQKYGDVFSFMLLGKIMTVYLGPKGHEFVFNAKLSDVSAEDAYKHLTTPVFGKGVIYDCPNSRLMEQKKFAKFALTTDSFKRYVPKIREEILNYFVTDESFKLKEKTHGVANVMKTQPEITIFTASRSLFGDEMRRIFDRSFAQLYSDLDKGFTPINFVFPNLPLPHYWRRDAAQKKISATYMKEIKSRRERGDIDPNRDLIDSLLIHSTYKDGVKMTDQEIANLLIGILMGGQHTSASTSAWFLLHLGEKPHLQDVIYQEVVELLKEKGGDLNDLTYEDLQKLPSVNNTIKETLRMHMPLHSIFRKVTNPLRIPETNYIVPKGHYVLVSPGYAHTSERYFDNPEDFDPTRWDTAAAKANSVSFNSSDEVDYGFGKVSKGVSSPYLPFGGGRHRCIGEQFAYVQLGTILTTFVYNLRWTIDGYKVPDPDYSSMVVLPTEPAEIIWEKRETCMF

[10] = Toxicity in mouse infected with Candida albicans assessed as AST level in plasma at 10 ug per 20 g, ip administered on day 2, 4, 6, 8, 10 and 12 and measured on day 14 (reference value: 74.9 +/- 6.7 IU/L); type: organism-based; conditions: in vivo, 336 h, dose 10 µg, time 14 day
[11] = Toxicity in mouse infected with Candida albicans assessed as ALT level in plasma at 10 ug per 20 g, ip administered on day 2, 4, 6, 8, 10 and 12 and measured on day 14 (reference value: 43.6 +/- 4.4 IU/L); type: organism-based; conditions: in vivo, 336 h, dose 10 µg, time 14 day
[12] = Toxicity in mouse infected with Candida albicans assessed as BUN level in plasma at 10 ug per 20 g, ip administered on day 2, 4, 6, 8, 10 and 12 and measured on day 14 (reference value: 8.2 +/- 0.5 mmol/L); type: organism-based; conditions: in vivo, 336 h, dose 10 µg, time 14 day
Candida albicans [13] = assay: Antifungal activity against Candida albicans ATCC SC5314 assessed as decrease in fungal cell density measured immediately by fluorescence microscopy (reference value: 126%); type: functional; design: scale not given: the % may be the effect or the level left
Candida albicans [14] = assay: Antifungal activity against Candida albicans ATCC SC5314 assessed as decrease in fungal cell density measured at 48 hrs by fluorescence microscopy (reference value: 258%); type: functional; design: scale not given: the % may be the effect or the level left
Candida albicans [15] = assay: Induction of mitochondrial membrane potential loss in Candida albicans ATCC SC5314 assessed as polarized cells at 1 umol/ml incubated for 24 hrs by JC-1 staining based flow cytometry assay (reference value: 0.69%); type: functional; conditions: dose 1 µmol/L, at 1 µM
Candida albicans [16] = assay: Induction of mitochondrial membrane potential loss in Candida albicans ATCC SC5314 assessed as normal cells at 1 umol/ml incubated for 24 hrs by JC-1 staining based flow cytometry assay (reference value: 95.26%); type: functional; conditions: dose 1 µmol/L, at 1 µM
Candida albicans [17] = assay: Induction of mitochondrial membrane potential loss in Candida albicans ATCC SC5314 assessed as depolarized cells at 1 umol/ml incubated for 24 hrs by JC-1 staining based flow cytometry assay (reference value: 0.76 to 3.29%); type: functional; conditions: dose 1 µmol/L, at 1 µM
Candida albicans [18] = assay: Induction of apoptosis in Candida albicans ATCC SC5314 assessed as normal cells incuabted for 24 hrs by V-FITC/PI staining based flow cytometry analysis (reference value: 96.78%); type: functional
Candida albicans [19] = assay: Induction of apoptosis in Candida albicans ATCC SC5314 assessed as mid apoptotic cells incuabted for 24 hrs by V-FITC/PI staining based flow cytometry analysis (reference value: 1.09%); type: functional
Candida albicans [20] = assay: Induction of apoptosis in Candida albicans ATCC SC5314 assessed as late apoptotic cells incuabted for 24 hrs by V-FITC/PI staining based flow cytometry analysis (reference value: 0.36%); type: functional
Candida albicans [21] = assay: Induction of apoptosis in Candida albicans ATCC SC5314 assessed as necrotic cells incuabted for 24 hrs by V-FITC/PI staining based flow cytometry analysis (reference value: 1.77%); type: functional
[22] = biological target: T1, Lanosterol 14-alpha demethylase; assay: Inhibition of CYP51 in Candida albicans ATCC SC5314 assessed as ergosterol level at 4 ug/ml incuabted for 48 hrs by GC-MS analysis (reference value: 96.48%); design: scale not given: the % may be the effect or the level left; conditions: at 4 µg/mL
[23] = biological target: T1, Lanosterol 14-alpha demethylase; assay: Inhibition of CYP51 in Candida albicans ATCC SC5314 assessed as lanosterol level at 4 ug/ml incuabted for 48 hrs by GC-MS analysis relative to control; design: scale not given: the % may be the effect or the level left; conditions: at 4 µg/mL
[24] = biological target: T1, Lanosterol 14-alpha demethylase; assay: Inhibition of CYP51 in Candida albicans ATCC SC5314 assessed as eburicol level at 4 ug/ml incuabted for 48 hrs by GC-MS analysis (reference value: 1.05%); design: scale not given: the % may be the effect or the level left; conditions: at 4 µg/mL
[25] = biological target: T1, Lanosterol 14-alpha demethylase; assay: Inhibition of CYP51 in Candida albicans ATCC SC5314 assessed as unknown sterol level at 4 ug/ml incuabted for 48 hrs by GC-MS analysis (reference value: 2.47%); design: scale not given: the % may be the effect or the level left; conditions: at 4 µg/mL
Mus musculus [26] = species: Mus musculus; assay: Antiinflammatory activity against mouse infected with Candida albicans ATCC SC5314 assessed as reduction in COX-2 expression in spleen by Western blot analysis; type: functional; design: scale not given: the % may be the effect or the level left
Mus musculus [27] = species: Mus musculus; assay: Immunostimulatory activity in mouse infected with Candida albicans ATCC SC5314 assessed as reduction in PD-L1 expression in spleen by western blot analysis relative to control; type: functional; design: scale not given: the % may be the effect or the level left
Mus musculus [28] = species: Mus musculus; assay: Immunostimulatory activity in mouse infected with Candida albicans ATCC SC5314 assessed as increase in CD3+ expression level in spleen by immunohistochemical analysis; type: functional
Mus musculus [29] = species: Mus musculus; assay: Immunostimulatory activity in mouse infected with Candida albicans ATCC SC5314 assessed as increase in CD8+ expression level in spleen by immunohistochemical analysis; type: functional

COc1ccc2cc([C@H](C)C(=O)NC(Cn3cncn3)C(=O)c3ccccc3)ccc2c1 (stereo partly drawn)
Activity (Candida albicans [1]): Active
MIC50 (Cryptococcus neoformans): 0.125 µg/mL (≈ 0.292 µM)
MIC50 (Candida albicans [2]): 0.25 µg/mL (≈ 0.583 µM)
MIC50 (Candida albicans [3]): 1 µg/mL (≈ 2.33 µM)
MIC50 (Pichia kudriavzevii): 0.25 µg/mL (≈ 0.583 µM)
MIC50 (Candida tropicalis): 0.125 µg/mL (≈ 0.292 µM)
MIC50 (Aspergillus fumigatus): 2 µg/mL (≈ 4.67 µM)
MIC50 (Candida albicans [4]): 1 µg/mL (≈ 2.33 µM)
MIC50 (Candida albicans [5]): 4 µg/mL (≈ 9.34 µM)
MIC50 (Candida albicans [6]): 1 µg/mL (≈ 2.33 µM)
MIC50 (Candida albicans [7]): 2 µg/mL (≈ 4.67 µM)
IC50 [8]: > 50000 nM
IC50 [9]: 80 nM
Activity [10]: 75.1 IU/L
Activity [11]: 39.4 IU/L
Activity [12]: 10.5 mmol/L
Activity (Candida albicans [13]): 115%
Activity (Candida albicans [14]): 62%
Activity (Candida albicans [15]): 0.81%
Activity (Candida albicans [16]): 44.19%
Activity (Candida albicans [17]): 3.14%
Activity (Candida albicans [18]): 50.92%
Activity (Candida albicans [19]): 14.76%
Activity (Candida albicans [20]): 22.73%
Activity (Candida albicans [21]): 11.59%
Activity [22]: 8.62%
Activity [23]: 46.09%
Activity [24]: 35.68%
Activity [25]: 9.61%
Activity (Mus musculus [26]): 11.32%
Activity (Mus musculus [27]): 12.36%
Activity (Mus musculus [28]): Active
Activity (Mus musculus [29]): Active

CC(C)NC(=O)[C@@H](Cn1ccnc1)NC(=O)[C@@H](C)c1cccc(C(=O)c2ccccc2)c1
Activity (Candida albicans [1]): Active
MIC50 (Cryptococcus neoformans): 0.5 µg/mL (≈ 1.16 µM)
MIC50 (Candida albicans [2]): 0.125 µg/mL (≈ 0.289 µM)
MIC50 (Candida albicans [3]): 2 µg/mL (≈ 4.62 µM)
MIC50 (Pichia kudriavzevii): 0.25 µg/mL (≈ 0.578 µM)
MIC50 (Candida tropicalis): 0.5 µg/mL (≈ 1.16 µM)
MIC50 (Aspergillus fumigatus): 2 µg/mL (≈ 4.62 µM)
MIC50 (Candida albicans [4]): 1 µg/mL (≈ 2.31 µM)
MIC50 (Candida albicans [5]): 4 µg/mL (≈ 9.25 µM)
MIC50 (Candida albicans [6]): 2 µg/mL (≈ 4.62 µM)
MIC50 (Candida albicans [7]): 4 µg/mL (≈ 9.25 µM)
IC50 [8]: > 50000 nM
IC50 [9]: 150 nM
Activity [10]: 69.8 IU/L
Activity [11]: 41.2 IU/L
Activity [12]: 12.1 mmol/L
Activity (Candida albicans [13]): 121%
Activity (Candida albicans [14]): 72%
Activity (Candida albicans [15]): 0.39%
Activity (Candida albicans [16]): 62.2%
Activity (Candida albicans [17]): 0.76%
Activity (Candida albicans [18]): 53.73%
Activity (Candida albicans [19]): 2.81%
Activity (Candida albicans [20]): 12.5%
Activity (Candida albicans [21]): 30.96%
Activity [22]: 11.27%
Activity [23]: 39.58%
Activity [24]: 37.35%
Activity [25]: 11.8%
Activity (Mus musculus [26]): 18.41%
Activity (Mus musculus [27]): 9.84%
Activity (Mus musculus [28]): Active
Activity (Mus musculus [29]): Active

OC(Cn1cncn1)(Cn1cncn1)c1ccc(F)cc1F [FLUCONAZOLE]
Activity (Candida albicans [1]): Active
MIC50 (Cryptococcus neoformans): 0.5 µg/mL (≈ 1.63 µM)
MIC50 (Candida albicans [2]): 0.5 µg/mL (≈ 1.63 µM)
MIC50 (Candida albicans [3]): > 8 µg/mL
MIC50 (Pichia kudriavzevii): 1 µg/mL (≈ 3.27 µM)
MIC50 (Candida tropicalis): 0.5 µg/mL (≈ 1.63 µM)
MIC50 (Aspergillus fumigatus): > 8 µg/mL
MIC50 (Candida albicans [4]): > 8 µg/mL
MIC50 (Candida albicans [5]): > 8 µg/mL
MIC50 (Candida albicans [6]): > 8 µg/mL
MIC50 (Candida albicans [7]): > 8 µg/mL
IC50 [9]: 140 nM
Activity [10]: 81.6 IU/L
Activity [11]: 37.5 IU/L
Activity [12]: 9.7 mmol/L
Activity (Candida albicans [13]): 119%
Activity (Candida albicans [14]): 75%
Activity (Candida albicans [15]): 0.39%
Activity (Candida albicans [16]): 81.14%
Activity (Candida albicans [17]): 0.37%
Activity (Candida albicans [18]): 68.17%
Activity (Candida albicans [19]): 0.4%
Activity (Candida albicans [20]): 1.56%
Activity (Candida albicans [21]): 29.87%
Activity [22]: 13.19%
Activity [23]: 35.17%
Activity [24]: 40.24%
Activity [25]: 11.4%
Activity (Mus musculus [26]): 47.23%
Activity (Mus musculus [27]): 31.81%
Activity (Mus musculus [28]): 2.5
Activity (Mus musculus [29]): 2.5
